Laboratory results reported in PMC8694192, “Synthesis and biological evaluation of new derivatives of thieno-thiazole and dihydrothiazolo-thiazole scaffolds integrated with a pyrazoline nucleus as anticancer and multi-targeting kinase inhibitors” (RSC Advances, 2021).
In brackets after ≈: the same amount, converted by molar mass. Where two headings read alike, the source gives them in different places.

Tests used:
[1] = system: C. albicans ATCC 10231; assay: Agar well diffusion, inhibition zone; type: cell-based; conditions: Candida albicans
[2] = system: A. fumigatus RCMB 02568; assay: MIC, two-fold serial dilution; conditions: for MIC: Aspergillus fumigatus, RCMB02568, read-out: MIC A. fumigatus RCMB 02568
[3] = system: A. fumigatus RCMB 02568; assay: Agar well diffusion, inhibition zone; type: cell-based; conditions: Aspergillus fumigatus
[4] = system: C. albicans ATCC 10231; assay: MIC, two-fold serial dilution; conditions: for MIC: Candida albicans, ATCC10231, read-out: MIC C. albicans ATCC 10231
[5] = system: S. aureus 25923; assay: MIC, two-fold serial dilution; conditions: Staphylococcus aureus, 25923, read-out: MIC S. aureus 25923
[6] = system: P. aeruginosa; assay: Agar well diffusion, inhibition zone; type: cell-based; conditions: Pseudomonas aeruginosa, read-out: Mean diameter of inhibition zone (mean ± SEM) P. aeruginosa
[7] = system: HepG-2 cells; assay: In vitro cytotoxicity, MTT assay, HepG-2; conditions: Homo sapiens, HepG2, read-out: IC50 HepG-2
[8] = system: S. pneumoniae 010010; assay: Agar well diffusion, inhibition zone; type: cell-based
[9] = system: S. aureus 25923; assay: Agar well diffusion, inhibition zone; type: cell-based
[10] = system: S. pneumoniae 010010; assay: MIC, two-fold serial dilution; conditions: for MIC: Streptococcus pneumoniae, 010010, read-out: MIC S. pneumoniae 010010
[11] = system: E. faecalis; assay: Agar well diffusion, inhibition zone; type: cell-based; conditions: Enterococcus faecalis, read-out: Mean diameter of inhibition zone (mean ± SEM) E. faecalis
[12] = system: S. typhi ATCC 14028; assay: Agar well diffusion, inhibition zone; type: cell-based; conditions: Salmonella enterica, read-out: Mean diameter of inhibition zone (mean ± SEM) S. typhi ATCC 14028
[13] = system: MCF-7 cells; assay: In vitro cytotoxicity, MTT assay, MCF-7; conditions: Homo sapiens, MCF7, read-out: IC50 MCF-7
[14] = system: E. coli RCMB 010052; assay: MIC, two-fold serial dilution; conditions: Escherichia coli, RCMB010052, read-out: MIC E. coli RCMB 010052
[15] = system: P. aeruginosa; assay: MIC, two-fold serial dilution; conditions: for MIC: Pseudomonas aeruginosa, read-out: MIC P. aeruginosa
[16] = system: S. typhi ATCC 14028; assay: MIC, two-fold serial dilution; type: cell-based; conditions: Salmonella enterica, read-out: MIC S. typhi ATCC 14028
[17] = system: E. coli RCMB 010052; assay: Agar well diffusion, inhibition zone; type: cell-based; conditions: Escherichia coli
[18] = system: E. faecalis; assay: MIC, two-fold serial dilution; conditions: Enterococcus faecalis, read-out: MIC E. faecalis
[19] = Streptococcus pneumoniae, 010010, read-out: Mean diameter of inhibition zone (mean ± SEM) S. pneumoniae 010010
[20] = Staphylococcus aureus, 25923, read-out: Mean diameter of inhibition zone (mean ± SEM) S. aureus 25923
[21] = ATCC10231, read-out: Mean diameter of inhibition zone (mean ± SEM) C. albicans ATCC 10231
[22] = RCMB02568, read-out: Mean diameter of inhibition zone (mean ± SEM) A. fumigatus RCMB 02568
[23] = RCMB010052, read-out: Mean diameter of inhibition zone (mean ± SEM) E. coli RCMB 010052

| SMILES | MIC [2] | MIC [4] | MIC [5] | zone of inhibition at 500 µg/mL [6] | IC50 [7] | zone of inhibition at 500 µg/mL [8, 19] | zone of inhibition at 500 µg/mL [9, 20] | zone of inhibition at 500 µg/mL [1, 21] | melting point | MIC [10] | zone of inhibition at 500 µg/mL [11] | zone of inhibition at 500 µg/mL [12] | zone of inhibition at 500 µg/mL [3, 22] | IC50 [13] | MIC [14] | MIC [15] | MIC [16] | zone of inhibition at 500 µg/mL [17, 23] | MIC [18] | other results |
| --- | --- | --- | --- | --- | --- | --- | --- | --- | --- | --- | --- | --- | --- | --- | --- | --- | --- | --- | --- | --- |
| C[C@@H]1[C@H](O)[C@@H](C)/C=C/C=C/C=C/C=C/C=C/C=C/C=C/[C@H](O[C@@H]2O[C@H](C)[C@@H](O)[C@H](N)[C@@H]2O)C[C@@H]2O[C@](O)(C[C@@H](O)C[C@@H](O)[C@H](O)CC[C@@H](O)C[C@@H](O)CC(=O)O[C@H]1C)C[C@H](O)[C@H]2C(=O)O [Amphotericin B, reference compound] | 39.1 µM (≈ 36.2 µg/mL) | 67.8 µM (≈ 62.7 µg/mL) | – | – | – | – | – | – | – | – | – | – | – | – | – | – | – | – | – | zone of inhibition at 500 µg/mL ([1]; ATCC10231, well diffusion agar, 0.5 mg/mL, read-out: Mean diameter of inhibition zone (mean ± SEM) C. albicans ATCC 10231): 20 ± 0.78 mm; zone of inhibition at 500 µg/mL ([3]; RCMB02568, well diffusion agar, 0.5 mg/mL, read-out: Mean diameter of inhibition zone (mean ± SEM) A. fumigatus RCMB 02568): 22 ± 0.72 mm |
| Cc1c(Nc2nc3c(C#N)c(N)sc3s2)c(=O)n(-c2ccccc2)n1C [Compound 3a, 5-Amino-2-((1,5-dimethyl-3-oxo-2-phenyl-2,3-dihydro-1H-pyrazol-4-yl)amino)thieno [3,2-d]thiazole-6-carbonitrile] | 120 µM (≈ 45.9 µg/mL) | 186 µM (≈ 71.2 µg/mL) | 16.9 µM (≈ 6.44 µg/mL) | 22 ± 0.44 mm | 25.72 ± 0.03 µM | 21 ± 0.69 mm | 28 ± 0.15 mm | 12 ± 0.51 mm | > 300 °C | 58.9 µM (≈ 22.5 µg/mL) | 13 ± 0.76 mm | 17 ± 0.95 mm | 18 ± 0.25 mm | 27.58 ± 0.01 µM | 19.4 µM (≈ 7.4 µg/mL) | 40.5 µM (≈ 15.5 µg/mL) | 125 µM (≈ 47.9 µg/mL) | 25 ± 0.15 mm | 185 µM (≈ 70.8 µg/mL) | fold more potency than streptomycin, S. pneumoniae ([10]; from MIC): 1.1 folds; MIC A. fumigatus RCMB 02568 ([2]; two-fold serial dilution): completely lost; MIC C. albicans ATCC 10231 ([4]; two-fold serial dilution): completely lost; fold more potency than streptomycin, P. aeruginosa ([15]; from MIC): 1.6 folds |
| CCOC(=O)c1c(N)sc2sc(Nc3c(C)n(C)n(-c4ccccc4)c3=O)nc12 [Compound 3b, Ethyl 5-amino-2-((1,5-dimethyl-3-oxo-2-phenyl-2,3-dihydro-1H-pyrazol-4-yl)amino) thieno[3,2-d]thiazole-6-carboxylate] | 62.1 µM (≈ 26.7 µg/mL) | 189 µM (≈ 81.2 µg/mL) | 79 µM (≈ 33.9 µg/mL) | 17 ± 0.41 mm | 39.02 ± 0.02 µM | 14 ± 0.84 mm | 19 ± 0.68 mm | 11 ± 0.7 mm | 285 to 287 °C | 179 µM (≈ 76.7 µg/mL) | 20 ± 0.24 mm | 23 ± 0.79 mm | 21 ± 0.22 mm | 36.77 ± 0.02 µM | 119 µM (≈ 51.1 µg/mL) | 125 µM (≈ 53.6 µg/mL) | 45.6 µM (≈ 19.6 µg/mL) | 15 ± 0.71 mm | 67.4 µM (≈ 29 µg/mL) | – |
| Cc1c(Nc2nc3c(C(N)=S)c(N)sc3s2)c(=O)n(-c2ccccc2)n1C [Compound 3d, 5-Amino-2-((1,5-dimethyl-3-oxo-2-phenyl-2,3-dihydro-1H-pyrazol-4-yl)amino) thieno[3,2-d]thiazole-6-carbothioamide] | 118 µM (≈ 49.1 µg/mL) | 132 µM (≈ 55.1 µg/mL) | 181 µM (≈ 75.4 µg/mL) | 20 ± 0.19 mm | 16.91 ± 0.01 µM | 28 ± 0.45 mm | 13 ± 0.95 mm | 16 ± 0.28 mm | 297 to 299 °C | 16.2 µM (≈ 6.74 µg/mL) | 22 ± 0.11 mm | 18 ± 0.13 mm | 19 ± 0.45 mm | 18.19 ± 0.01 µM | 71.8 µM (≈ 29.9 µg/mL) | 67 µM (≈ 27.9 µg/mL) | 121 µM (≈ 50.6 µg/mL) | 22 ± 0.14 mm | 75.5 µM (≈ 31.4 µg/mL) | – |
| Cc1c(Nc2nc3c(s2)sc(=S)n3-c2ccccc2)c(=O)n(-c2ccccc2)n1C [Compound 5a, 1,5-Dimethyl-2-phenyl-4-((4-phenyl-5-thioxo-4,5-dihydrothiazolo[4,5-d]thiazol-2-yl)amino)-1H-pyrazol-3(2H)-one] | 197 µM (≈ 89.2 µg/mL) | – | 63.6 µM (≈ 28.7 µg/mL) | – | 65.19 ± 0.02 µM | – | 21.2 ± 0.25 mm | – | 201 to 203 °C | – | 13 ± 0.43 mm | 23 ± 0.05 mm | 9 ± 0.53 mm | 73.8 ± 0.04 µM | – | – | 44.7 µM (≈ 20.2 µg/mL) | – | 183 µM (≈ 82.8 µg/mL) | – |
| CCn1c(=S)sc2sc(Nc3c(C)n(C)n(-c4ccccc4)c3=O)nc21 [Compound 5b, 4-((4-Ethyl-5-thioxo-4,5-dihydrothiazolo[4,5-d]thiazol-2-yl)amino)-1,5-dimethyl-2-phenyl-1H-pyrazol-3(2H)-one] | – | 185 µM (≈ 74.7 µg/mL) | 135 µM (≈ 54.6 µg/mL) | 18 ± 0.95 mm | 48.04 ± 0.03 µM | 28 ± 0.12 mm | 16 ± 0.88 mm | 12 ± 0.07 mm | 183 to 185 °C | 15.9 µM (≈ 6.4 µg/mL) | 27 ± 0.41 mm | – | – | 43.94 ± 0.02 µM | 193 µM (≈ 78 µg/mL) | 122 µM (≈ 49.1 µg/mL) | – | 10 ± 0.42 mm | 15.2 µM (≈ 6.13 µg/mL) | – |
| Cc1c(Nc2nc3c(s2)sc(=S)n3C)c(=O)n(-c2ccccc2)n1C [Compound 5c, 1,5-Dimethyl-4-((4-methyl-5-thioxo-4,5-dihydrothiazolo[4,5-d]thiazol-2-yl)amino)-2-phenyl-1H-pyrazol-3(2H)-one] | 17.8 µM (≈ 6.95 µg/mL) | 79.4 µM (≈ 30.9 µg/mL) | 68.8 µM (≈ 26.8 µg/mL) | 22 ± 0.48 mm | 11.85 ± 0.03 µM | 15 ± 0.86 mm | 20 ± 0.08 mm | 19 ± 0.23 mm | 189 to 191 °C | 178 µM (≈ 69.4 µg/mL) | 24 ± 0.89 mm | 17 ± 0.78 mm | 26 ± 0.17 mm | 14.69 ± 0.03 µM | 20.8 µM (≈ 8.08 µg/mL) | 62.2 µM (≈ 24.2 µg/mL) | 125 µM (≈ 48.8 µg/mL) | 25 ± 0.1 mm | 18.9 µM (≈ 7.35 µg/mL) | – |
| Cc1c(Nc2nc3c(s2)sc(=S)n3-c2ccc(Cl)cc2)c(=O)n(-c2ccccc2)n1C [Compound 5d, 4-((4-(4-Chlorophenyl)-5-thioxo-4,5-dihydrothiazolo[4,5-d]thiazol-2-yl)amino)-1,5-dimethyl-2-phenyl-1H-pyrazol-3(2H)-one] | – | – | 18.9 µM (≈ 9.17 µg/mL) | 13 ± 0.11 mm | 81.5 ± 0.03 µM | – | 25 ± 0.13 mm | – | 211 to 213 °C | – | – | – | – | 88.56 ± 0.01 µM | 118 µM (≈ 57.4 µg/mL) | 180 µM (≈ 87.6 µg/mL) | – | 15 ± 0.04 mm | – | – |
| COc1cccc2c1C(=O)c1c(O)c3c(c(O)c1C2=O)C[C@@](O)(C(=O)CO)C[C@@H]3O[C@H]1C[C@H](N)[C@H](O)[C@H](C)O1 [Doxorubicin, doxorubicin, reference compound] | – | – | – | – | 5.66 ± 0.01 µM | – | – | – | – | – | – | – | – | 4.62 ± 0.01 µM | – | – | – | – | – | – |
| [H]/N=C(/N)N[C@H]1[C@H](O)[C@@H](O)[C@H](O[C@@H]2O[C@@H](C)[C@](O)(C=O)[C@H]2O[C@@H]2O[C@@H](CO)[C@H](O)[C@@H](O)[C@@H]2NC)[C@@H](N/C(N)=N\[H])[C@@H]1O [Streptomycin, reference compound] | – | – | 16.8 µM (≈ 9.74 µg/mL) | – | – | – | – | – | – | 65.3 µM (≈ 38 µg/mL) | – | 23 ± 0.92 mm | – | – | 9.18 µM (≈ 5.34 µg/mL) | 68.2 µM (≈ 39.7 µg/mL) | 47.1 µM (≈ 27.4 µg/mL) | – | 19.5 µM (≈ 11.3 µg/mL) | zone of inhibition at 500 µg/mL ([6]; well diffusion agar, 0.5 mg/mL): 20 ± 0.53 mm; zone of inhibition at 500 µg/mL ([8]; Streptococcus pneumoniae, 010010, well diffusion agar, 0.5 mg/mL, read-out: Mean diameter of inhibition zone (mean ± SEM) S. pneumoniae 010010): 22 ± 0.81 mm; zone of inhibition at 500 µg/mL ([9]; Staphylococcus aureus, 25923, well diffusion agar, 0.5 mg/mL, read-out: Mean diameter of inhibition zone (mean ± SEM) S. aureus 25923): 26 ± 0.45 mm; zone of inhibition at 500 µg/mL ([11]; well diffusion agar, 0.5 mg/mL): 25 ± 0.38 mm; zone of inhibition at 500 µg/mL ([17]; RCMB010052, well diffusion agar, 0.5 mg/mL, read-out: Mean diameter of inhibition zone (mean ± SEM) E. coli RCMB 010052): 27 ± 0.56 mm |
